SMILES strings stand for the structures.

The target in this test is T1, human TLR7 (Homo sapiens, UniProt Q9NYK1).
T1 construct: expressed in transfected cells; host or cells: HEK293 (hTLR7/seap-293)
T1 sequence (Q9NYK1 27-1049): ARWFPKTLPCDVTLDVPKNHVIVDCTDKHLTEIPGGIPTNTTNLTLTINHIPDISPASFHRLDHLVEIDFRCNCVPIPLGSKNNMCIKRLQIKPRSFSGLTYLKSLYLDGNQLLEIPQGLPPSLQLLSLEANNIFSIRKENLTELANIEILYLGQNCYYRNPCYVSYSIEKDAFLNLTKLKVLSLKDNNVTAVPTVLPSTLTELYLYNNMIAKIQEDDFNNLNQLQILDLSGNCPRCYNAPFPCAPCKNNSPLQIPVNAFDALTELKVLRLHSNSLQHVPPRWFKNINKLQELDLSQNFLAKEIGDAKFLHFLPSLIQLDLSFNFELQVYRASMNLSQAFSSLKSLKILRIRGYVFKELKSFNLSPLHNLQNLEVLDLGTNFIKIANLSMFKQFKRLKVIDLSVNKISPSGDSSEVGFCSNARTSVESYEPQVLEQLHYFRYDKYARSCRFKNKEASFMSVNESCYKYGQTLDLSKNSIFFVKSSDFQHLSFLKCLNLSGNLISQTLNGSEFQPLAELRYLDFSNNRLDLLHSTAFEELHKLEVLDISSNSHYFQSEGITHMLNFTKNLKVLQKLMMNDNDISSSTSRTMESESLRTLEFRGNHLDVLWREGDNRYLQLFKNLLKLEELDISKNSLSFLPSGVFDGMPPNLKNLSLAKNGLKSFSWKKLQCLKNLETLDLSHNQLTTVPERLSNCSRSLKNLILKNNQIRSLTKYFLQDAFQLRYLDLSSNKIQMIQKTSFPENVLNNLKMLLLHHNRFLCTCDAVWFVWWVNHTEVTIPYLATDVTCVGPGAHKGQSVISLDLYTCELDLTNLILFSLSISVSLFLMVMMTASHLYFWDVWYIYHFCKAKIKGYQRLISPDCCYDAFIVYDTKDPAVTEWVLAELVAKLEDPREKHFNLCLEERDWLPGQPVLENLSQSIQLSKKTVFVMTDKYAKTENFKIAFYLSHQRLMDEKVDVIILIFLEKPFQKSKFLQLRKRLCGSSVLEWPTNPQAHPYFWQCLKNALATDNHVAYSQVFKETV
Briefly: Human TLR7 reporter assay (NF-kB-SEAP) in HEK293 cells. In kind it is cell-based. Particulars: HEK293 cells stably introduced with human TLR7 plasmid and NF-kB-SEAP reporter plasmid; cultured 20 hours with compound (1 nM-10 μM); absorbance 405 nm; read-out: Human TLR7 binding activity (EC50). As for the experimental part: Human TLR7 Reporter Assay
HEK293 cells in which human TLR7 or rat TLR7 plasmid and reporter plasmid (NF-kB-SEAP) are stably introduced are dispersed in DMEM broth (10% FBS, 1% NEAA, 10 ug/mL blastocidin S HCl, 100 ug/mL Zeocin), and were seeded to 96 well plate per 90 μl/well (hTLR7/seap-293: 20000 cells/well, rTLR7/seap-293:25000 cells/well).
Test compound (DMSO stock solution (2 μl) was diluted with the broth (200 μl) by 100 times) was added to the seeded cells to a 96 well plate (10 μl/well) (final concentration; 1 nM-10 μM, common ratio). After stirring by tapping side of the plate, the cells were cultured in a CO2 incubator for 20 hours. A substrate (50 μl/well) for reporter assay (substrate for SEAP, pNPP) was added to cells stimulated by test sample. Ten minutes after adding the substrate, the reaction quenching solution (4N NaOH) was added by 50 μl/well to cease enzymatic reaction. Sealing a top seal A on the plate, the absorbance was measured by a micro plate reader (405 nm).
Regarding `CCCCOc1nc(N)c2[nH]c(=O)n(CC3CCN(CCCN(C)Cc4cccc(CC(=O)OC)c4)CC3)c2n1` [Example 1, 2-Butoxy-7,8-dihydro-9-{[2-(3-{N-[(3-methoxycarbonylmethylphenyl-1-yl)methyl]-N-methylamino}propyl)piperidin-4-yl]methyl}-8-oxoadenine], the EC50 (usually the concentration at which the effect is half-maximal) was 1620 nM.
Take `CCCCOc1nc(N)c2[nH]c(=O)n(CC3CCN(CCCNCc4cccc(CC(=O)OC)c4)CC3)c2n1` [Example 2]: the EC50 amounted to 1860 nM.
In the case of `CCCCOc1nc(N)c2[nH]c(=O)n(CCC3CCN(CCOc4cccc(CC(=O)OC)c4)CC3)c2n1` [Example 11, 2-Butoxy-7,8-dihydro-9-(1-{2-[3-(methoxycarbonylmethyl)phenoxy]ethyl}piperidin-4-ylethyl)-8-oxoadenine] it was 187 nM; in that of `CCCCOc1nc(N)c2[nH]c(=O)n(CCC3CCN(CCCN(C)CCOc4cccc(CC(=O)OC)c4)CC3)c2n1` [Example 12, 2-Butoxy-7,8-dihydro-9-{1-[3-([N-methyl-N {2 [3-(methoxycarbonylmethyl)phenoxy]ethyl}]amino)propyl]piperidin-4-ylethyl}-8-oxoadenine], 579 nM; in that of `COCCOc1nc(N)c2[nH]c(=O)n(CC3CCN(CC(=O)N(C)CCOc4cccc(CC(=O)OC)c4)CC3)c2n1` [Example 17, 7,8-Dihydro-2-(2-methoxyethoxy)-9-{1-[(N-(2-[3-(methoxylcarbonylmethyl)phenoxy]ethyl}-N-methyl)aminocarbonylmethyl]piperidin-4-ylmethyl}-8-oxoadenine], 5620 nM.
In the case of `CCCCOc1nc(N)c2[nH]c(=O)n(CCC3CCN(C(=O)CN(C)CCOc4cccc(CC(=O)OC)c4)CC3)c2n1` [Example 18, 2-Butoxy-7,8-dihydro-9-(2-{1-[(N-{2-[3-(methoxylcarbonylmethyl)phenoxy]ethyl)-N-methyl)aminocarbonylmethyl]piperidin-4-yl}ethyl)-8-oxoadenine] it was 281 nM.
In the case of `CCCCOc1nc(N)c2[nH]c(=O)n(CC3CCN(C(=O)CN(C)CCOc4cc(CC(=O)OC)ccc4OC)CC3)c2n1` [Example 19, 2-Butoxy-7,8-dihydro-9-{1-[(N-{2-[2-methoxy-5-(methoxylcarbonylmethyl)phenoxy]ethyl}-N-methyl)aminomethylacarbonyl]piperidin-4-ylmethyl}-8-oxoadenine] it was 644 nM; in that of `CCCCOc1nc(N)c2[nH]c(=O)n(CCCCCN3CCN(CCN(C)Cc4cccc(CC(=O)OC)c4)CC3)c2n1` [Example 20, 2-Butoxy-7,8-dihydro-9-[5-(4-{2-[N-methyl-N-(3-methoxycarbonylmethyl)benzyl]aminomethyl}piperazin-1-yl)pentyl]-8-oxoadenine], 139 nM.
Consider `CCCCOc1nc(N)c2[nH]c(=O)n(CCCCCCCN3CCN(CCN(C)Cc4cccc(CC(=O)OC)c4)CC3)c2n1` [Example 21, 2-Butoxy-7,8-dihydro-9-[7-(4-{2-[N-methyl-N-(3-methoxycarbonylmethyl)benzyl]aminomethyl}piperazin-1-yl)heptyl]-8-oxoadenine], for which the half-maximal effective concentration (EC50) came out at 449 nM.
In the case of `CCCCOc1nc(N)c2[nH]c(=O)n(CCCCCN3CCN(CCOc4cccc(CC(=O)OC)c4)CC3)c2n1` [Example 22] it was 198 nM.
For `CCCCOc1nc(N)c2[nH]c(=O)n(CCCCCCCN3CCN(CCOc4cccc(CC(=O)OC)c4)CC3)c2n1` [Example 23, 2-Butoxy-7,8-dihydro-9-(7-{4-[2-(3-methoxycarbonylmethylphenyloxy)ethyl]piperazin-1-yl}heptyl)-8-oxoadenine], the EC50 amounted to 74.5 nM.
With `CCCCOc1nc(N)c2[nH]c(=O)n(CCCCN3CCC(Oc4cccc(CC(=O)OC)c4)CC3)c2n1` [Example 29], the EC50 came out at 713 nM.

These data come from US20080269240A1, “Novel Adenine Compound” (priority 2005, published 2008).
